Experimental findings from PubChem BioAssay AID1259407 (Chemical Carcinogenesis Research Information System (CCRIS), 2018) are described below.

Active and inactive are the calls of the source. How the calls were made is not given here.

The data set deals with CCRIS mutagenicity, Ames/micronucleus/aberration tests. The data set is described as follows: CCRIS mutagenicity studies.
Setting [1] is: Test System: AMES SALMONELLA TYPHIMURIUM, Strain/Indicator: TA98, Metabolic Activation: NONE, Method: STANDARD PLATE.
[2] abbreviates: Test System: AMES SALMONELLA TYPHIMURIUM, Strain/Indicator: TA100, Metabolic Activation: NONE, Method: STANDARD PLATE.
Where [3] appears, read: Test System: AMES SALMONELLA TYPHIMURIUM, Strain/Indicator: TA100, Metabolic Activation: NONE, Method: PREINCUBATION

`C[C@H]1CCC[C@H](O)CCCCCc2cc(O)cc(O)c2C(=O)O1`: the mutagenic call under setting [1] is “inactive; negative”; the mutagenic call (Test System: AMES SALMONELLA TYPHIMURIUM, Strain/Indicator: TA98, Metabolic Activation: RAT, LIVER, S-9, Method: STANDARD PLATE) is “inactive; negative”; the mutagenic call under setting [2] is “inactive; negative; toxicity at 1000 ug/plate”; the mutagenic call (Test System: AMES SALMONELLA TYPHIMURIUM, Strain/Indicator: TA100, Metabolic Activation: RAT, LIVER, S-9, Method: STANDARD PLATE) was “inactive; negative”; the mutagenic call (Test System: AMES SALMONELLA TYPHIMURIUM, Strain/Indicator: TA1535, Metabolic Activation: NONE, Method: STANDARD PLATE) is “inactive; negative”; the mutagenic call (Test System: AMES SALMONELLA TYPHIMURIUM, Strain/Indicator: TA1535, Metabolic Activation: RAT, LIVER, S-9, Method: STANDARD PLATE) was “inactive; negative”. For the same compound, the mutagenic call by setting is: (Test System: AMES SALMONELLA TYPHIMURIUM, Strain/Indicator: TA1537, Metabolic Activation: NONE, Method: STANDARD PLATE) “inactive; negative; toxicity at 1000 ug/plate”; (Test System: AMES SALMONELLA TYPHIMURIUM, Strain/Indicator: TA1537, Metabolic Activation: RAT, LIVER, S-9, Method: STANDARD PLATE) “inactive; negative; toxicity at 1000 ug/plate”; (Test System: AMES SALMONELLA TYPHIMURIUM, Strain/Indicator: TA1538, Metabolic Activation: NONE, Method: STANDARD PLATE) “inactive; negative”; (Test System: AMES SALMONELLA TYPHIMURIUM, Strain/Indicator: TA1538, Metabolic Activation: RAT, LIVER, S-9, Method: STANDARD PLATE) “inactive; negative; toxicity at 1000 ug/plate”.

For the compound `Cc1cc(O)c2c(c1O)C(=O)C13C(=C2O)C(=O)C2C(O)C1C1C(O)C3C(=O)C3=C(O)c4c(O)cc(C)c(O)c4C(=O)C321` (centres undefined), the mutagenic call under setting [3] was “inactive; negative” and the mutagenic call (Test System: AMES SALMONELLA TYPHIMURIUM, Strain/Indicator: TA100, Metabolic Activation: RAT, LIVER, S-9, PHENOBARBITAL, Method: PREINCUBATION) was “inactive; negative”.

Take `ClC(Cl)=C(Cl)c1ccc(Cl)c(Cl)c1Cl`: the mutagenic call is “inactive; negative” under setting [1]; “inactive; negative” (Test System: AMES SALMONELLA TYPHIMURIUM, Strain/Indicator: TA98, Metabolic Activation: RAT, LIVER, S-9, AROCLOR 1254, Method: STANDARD PLATE); “inactive; negative” under setting [2]; “inactive; negative” (Test System: AMES SALMONELLA TYPHIMURIUM, Strain/Indicator: TA100, Metabolic Activation: RAT, LIVER, S-9, AROCLOR 1254, Method: STANDARD PLATE).

Consider `CCCN=NC(C)(C)OO`, for which the mutagenic call is “active; positive” (Test System: AMES SALMONELLA TYPHIMURIUM, Strain/Indicator: TA1535, Metabolic Activation: NONE) and “active; positive” (Test System: E. COLI, Strain/Indicator: WP2 (HCR-), Metabolic Activation: NONE).

Turning to `c1ccc(Oc2ccccc2)cc1`, the mutagenic call (Test System: AMES SALMONELLA TYPHIMURIUM, Strain/Indicator: TA98, Metabolic Activation: HAMSTER, LIVER, S-9, AROCLOR 1254, Method: PREINCUBATION) is “inactive; negative”; the mutagenic call (Test System: AMES SALMONELLA TYPHIMURIUM, Strain/Indicator: TA98, Metabolic Activation: NONE, Method: PREINCUBATION) is “inactive; negative”; the mutagenic call (Test System: AMES SALMONELLA TYPHIMURIUM, Strain/Indicator: TA98, Metabolic Activation: RAT, LIVER, S-9, AROCLOR 1254, Method: PREINCUBATION) was “inactive; negative”; the mutagenic call (Test System: AMES SALMONELLA TYPHIMURIUM, Strain/Indicator: TA100, Metabolic Activation: HAMSTER, LIVER, S-9, AROCLOR 1254, Method: PREINCUBATION) is “inactive; negative”; the mutagenic call under setting [3] is “inactive; negative”; the mutagenic call (Test System: AMES SALMONELLA TYPHIMURIUM, Strain/Indicator: TA100, Metabolic Activation: RAT, LIVER, S-9, AROCLOR 1254, Method: PREINCUBATION) was “inactive; negative”. The mutagenic call is, setting by setting: (Test System: AMES SALMONELLA TYPHIMURIUM, Strain/Indicator: TA1535, Metabolic Activation: HAMSTER, LIVER, S-9, AROCLOR 1254, Method: PREINCUBATION) “inactive; negative”; (Test System: AMES SALMONELLA TYPHIMURIUM, Strain/Indicator: TA1535, Metabolic Activation: NONE, Method: PREINCUBATION) “inactive; negative”; (Test System: AMES SALMONELLA TYPHIMURIUM, Strain/Indicator: TA1535, Metabolic Activation: RAT, LIVER, S-9, AROCLOR 1254, Method: PREINCUBATION) “inactive; negative”; (Test System: AMES SALMONELLA TYPHIMURIUM, Strain/Indicator: TA1537, Metabolic Activation: HAMSTER, LIVER, S-9, AROCLOR 1254, Method: PREINCUBATION) “inactive; negative”; (Test System: AMES SALMONELLA TYPHIMURIUM, Strain/Indicator: TA1537, Metabolic Activation: NONE, Method: PREINCUBATION) “inactive; negative”; (Test System: AMES SALMONELLA TYPHIMURIUM, Strain/Indicator: TA1537, Metabolic Activation: RAT, LIVER, S-9, AROCLOR 1254, Method: PREINCUBATION) “inactive; negative”.

Take `c1cc(-c2cc3ccc(C4=NCCN4)cc3[nH]2)ccc1C1=NCCN1`: the mutagenic call is “inactive; negative” under setting [1]; “inactive; negative” (Test System: AMES SALMONELLA TYPHIMURIUM, Strain/Indicator: TA98, Metabolic Activation: RAT, LIVER, S-9, PHENOBARBITAL, Method: STANDARD PLATE); “inactive; negative” under setting [2]; “inactive; negative” (Test System: AMES SALMONELLA TYPHIMURIUM, Strain/Indicator: TA100, Metabolic Activation: RAT, LIVER, S-9, PHENOBARBITAL, Method: STANDARD PLATE).
